Laboratory results: patent US20190352276A1, “INHIBITORS OF BRUTON'S TYROSINE KINASE” (Joint Stock Company "Biocad", priority 2016, published 2019)
pIC50: −log10 of the molar value.

How the values were obtained:
[1] = Stability in human blood plasma; conditions: 10 μM in pooled human blood plasma, incubated 4 hours at 37° C.
[2] = test system: Mino (mantle cell lymphoma); test: Antiproliferative activity, Mino cells (Alamar Blue); assay type: cell-based; conditions: Homo sapiens, Table 10, 72 h, average of several tests
Experimental: (§1) Antiproliferative activity of BTK inhibitors was measured in cell-based bioassay on B-cells cultures: Mino (mantle cell lymphoma, ATCC® CRL-3000™), Z-138 (mantle cell lymphoma, ATCC® CRL-3001™) and DOHH2 (follicular lymphoma, Creative Bioarray CSC-C0219) using cell viability reagent Alamar Blue (Invitrogen, #DAL 1100). Cells were cultured in 10% FB S-supplemented (HyClone, #SH3008803/Gibco, #16140-071) RPMI-1640 (PanEco, #S330p) for at least 1 passage after thawing, washed with PBS and passaged in 96-well culture plates (Corning, #3599) with growth medium with 10% FBS (HyClone, #SH3008803/Gibco, #16140-071) and antibiotic (50 μg/ml of gentamicin (Biolot, #1.3.16))≈3*10^4 cells in 50 μl of medium per well.
(§2) The compounds were dissolved in DMSO and diluted with the assay medium to final concentrations ranging from […]. 150 μl of each diluted compound were then added to each well (final concentration of DMSO was less than 1%) and incubated at 37° C. in an incubator under 5% of CO2 for 72 h. After incubation, 20 μl of Alamar Blue reagent (Invitrogen, #DAL1100) were added to each well. The plates were shaked on an orbital shaker (Biosan, Latvia) and then incubated for 14-16 hours at 37° C. in the incubator.
(§3) The number of living cells were estimated, measuring the fluorescence signal at the excitation wavelength (REx) of 540 nm and the emission wavelength (λEm) of 590 nm on a microplate reader (Tecan Infinite M200Pro, Switzerland).
(§4) For each compound, IC50 was calculated using Magellan 7.2 software (Tecan, Switzerland) approximating experimental points by four-parameter logistic model with the optimization by Levenberg-Marquardt.

[3] = test system: Z-138 (mantle cell lymphoma); test: Antiproliferative activity, Z-138 cells (Alamar Blue); assay type: cell-based; conditions: Homo sapiens, Table 10, 72 h, average of several tests
Experimental: as §1, §2, §3, §4

[4] = General cytotoxicity on HepG2 cells (CC50; therapeutic index CC50 HepG2/IC50 Mino); assay type: cell-based; conditions: human, HepG2 cells (hepatocellular carcinoma); Table 10; 72 hours, Alamar Blue; average of several tests
Experimental: (§5) The CC50 values were determined in the test for General cytotoxicity on HepG2 cells (hepatocellular carcinoma, ATCC® HB-8065™). 2*10^4 cells (in 50 μl) per well were seeded in 96-well plates (Corning, #3599) in DMEM medium (PanEco, #S420p), after 24 h of incubation 150 μl of candidate compounds were added to each well in the range of final concentrations from 200 μM to 4 μM and the plate was incubated in a total volume of 200 μl for 72 hours. Viability of the cells was assessed using Alamar Blue dye (Invitrogen, #DAL 1100). CC50 was determined similarly (table 10).
(§6) The relationship between toxic (CC50) and a therapeutic (IC50) effects of the dose is the therapeutic index, which can be expressed as the ratio between CC50 (HepG2) (general cytotoxicity of the candidate) and IC50 (Mino) (antiproliferative activity on the target cells): […]

[5] = test system: HepG2 cells (hepatocellular carcinoma); test: as above; assay type: cell-based; conditions: Table 10; therapeutic index
Experimental: as §5, §6

[6] = Chemical stability in artificial gastric fluid (SGF without enzymes); conditions: 10 μM in SGF without enzymes, pH=1.4, 37° C.

Compound	Amount of substance in the sample, % (stability in human blood plasma) [1]	pIC50 [2]	pIC50 [3]	CC50 at 72 h [4]	CC50 (HepG2)/IC50 (Mino) [5]	Amount of substance in the sample in % (chemical stability) [6]
C=CC(=O)N1CCC[C@@H](n2nc(-c3cnc(C(=O)Nc4cc(C(F)(F)CCC)ccn4)nc3)c3cncc(Cl)c32)C1 [BCD-BTK -292, (R)-5-(1-(1-acryloylpiperidin-3-yl)-7-chloro-1H-pyrazolo[4,3-c]pyridin-3-yl)-N-(4-(1,1-difluorobutyl)pyridin-2-yl)pyrimidine-2-carboxamide]	93.3%	–	–	–	–	–
C=CC(=O)N1CCC[C@@H](n2nc(-c3ccc(Oc4ccncc4)cc3)c3c(N)ncc(C#N)c32)C1 [BCD-BTK -134, (R)-1-(1-acryloylpiperidin-3-yl)-4-amino-3-(4-(pyridin-4-yloxy)phenyl)-1H-pyrazolo[4,3-c]pyridin-7-carbonitrile]	89.7%	–	–	–	–	–
C=CC(=O)N1CCC[C@@H](n2nc(-c3ccc(C(=O)Nc4cc(C(F)(F)CCC)ccn4)cc3)c3c(N)ncc(Cl)c32)C1 [BCD-BTK -254, (R)-4-(1-(1-acryloylpiperidin-3-yl)-4-amino-7-chloro-1H-pyrazolo[4,3-c]pyridin-3-yl)-N-(4-(1,1-difluorobutyl)pyridin-2-yl)benzamide]	93.0%	–	–	–	–	–
CC#CC(=O)N1CCC[C@@H](n2nc(-c3ccc(C(=O)Nc4ccccn4)cc3)c3c(N)ncc(Cl)c32)C1 [BCD-BTK -295, (R)-4-(4-amino-1-(1-(but-2-ynoyl)piperidin-3-yl)-7-chloro-1H-pyrazolo[4,3-c]pyridin-3-yl)-N-(pyridin-2-yl)benzamide]	100.0%	–	–	–	–	–
C=CC(=O)N1CCC[C@@H](n2nc(-c3cnc(C(=O)Nc4cc(C(F)(F)CC)ccn4)nc3)c3cncc(Cl)c32)C1 [BCD-BTK -293, (R)-5-(1-(1-acryloylpiperidin-3-yl)-7-chloro-1H-pyrazolo[4,3-c]pyridin-3-yl)-N-(4-(1,1-difluoropropyl)pyridin-2-yl)pyrimidine-2-carboxamide]	85.7%	–	–	–	–	–
C=CC(=O)N1CCC[C@@H](n2nc(-c3cnc(-n4ccc(=O)c(C#N)c4)nc3)c3cncc(Cl)c32)C1 [BCD-BTK-206, (R)-1-(5-(1-(1-acryloylpiperidin-3-yl)-7-chloro-1H-pyrazolo[4,3-c]pyridin-3-yl)pyrimidin-2-yl)-4-oxo-1,4-dihydropyridine-3-carbonitrile]	87.6%	–	–	–	–	–
C=CC(=O)N1CCC[C@@H](n2nc(-c3ccc(C(=O)Nc4cc(C(F)(F)CCC)ccn4)cc3)c3cncc(Cl)c32)C1 [BCD-BTK -252, (R)-4-(1-(1-acryloylpiperidin-3-yl)-7-chloro-1H-pyrazolo[4,3-c]pyridin-3-yl)-N-(4-(1,1-difluorobutyl)pyridin-2-yl)benzamide]	85.2%	–	–	–	–	–
C=CC(=O)N1CCC[C@@H](n2nc(-c3ccc(C(=O)Nc4cc(C(F)(F)F)ccn4)cc3)c3c(N)ncc(Cl)c32)C1 [BCD-BTK -251, (R)-4-(1-(1-acryloylpiperidin-3-yl)-4-amino-7-chloro-1H-pyrazolo[4,3-c]pyridin-3-yl)-N-(4-(trifluoromethyl)pyridin-2-yl)benzamide]	89.2%	–	–	–	–	–
C=CC(=O)N1CCC[C@@H](n2nc(-c3cnc(-n4ccc(=O)c(C(N)=O)c4)nc3)c3cncc(Cl)c32)C1 [BCD-BTK-207, (R)-1-(5-(1-(1-acryloylpiperidin-3-yl)-7-chloro-1H-pyrazolo[4,3-c]pyridin-3-yl)pyrimidin-2-yl)-4-oxo-1,4-dihydropyridine-3-carboxamide]	82.6%	–	–	–	–	–
C=CC(=O)N1CCC[C@@H](n2nc(-c3ccc(Oc4ccncc4)cc3)c3c(N)ncc(Cl)c32)C1 [BCD-BTK -139, (R)-1-(1-acryloylpiperidin-3-yl)-7-chloro-3-(4-(pyridin-4-yloxy)phenyl)-1H-pyrazolo[4,3-c]pyridin-4-amine]	87.1%	–	–	–	–	–
C=CC(=O)N1CCC[C@@H](n2nc(-c3ccc(Oc4ccncc4)cc3)c3cncc(Cl)c32)C1 [BCD-BTK -125, (R)-1-(1-acryloylpiperidin-3-yl)-7-chloro-3-(4-(pyridin-4-yloxy)phenyl)-1H-pyrazolo[4,3-c]pyridine]	97.8%	–	–	–	–	–
C=CC(=O)N1CCC[C@@H](n2nc(-c3ccc(-n4ccc(=O)cc4)cc3)c3cc(N)c(C)nc32)C1 [BCD-BTK-119, (R)-1-(4-(1-(1-acryloylpiperidin-3-yl)-5-amino-6-methyl-1H-pyrazolo[3,4-b]pyridin-3-yl)phenyl) pyridin-4(1H)-one]	–	4.91	4.59	> 100 µM	>8.16	100.0%
C=CC(=O)N1CCC[C@@H](n2nc(-c3ccc(-n4ccc(=O)cc4)cc3)c3cc(O)cc(C#N)c32)C1 [BCD-BTK-122, (R)-1-(1-acryloylpiperidin-3-yl)-5-hydroxy-3-(4-(4-oxopyridin-1(4H)-yl)phenyl)-1H-indazol-7-carbonitrile]	–	4.45	4.44	> 100 µM	>2.81	97.5%
C=CC(=O)Oc1cnc2c(c(-c3ccc(-n4ccc(=O)cc4)cc3)nn2[C@@H]2CCCN(C(=O)C=C)C2)c1Cl [BCD-BTK-136, (R)-1-(1-acryloylpiperidin-3-yl)-4-chloro-3-(4-(4-oxopyridin-1(4H)phenyl)-1H-pyrazolo[3,4-b]pyridin-5-yl acrylate]	–	4.90	< 4.30	> 100 µM	>7.97	89.9%
C=CC(=O)N1CC[C@H](Cn2nc(-c3ccc(C(=O)Nc4ccccn4)cc3)c3cncc(Cl)c32)C1 [BCD-BTK-285, (S)-4-(1-((1-acryloylpyrrolidin-3-yl)methyl)-7-chloro-1H-pyrazolo[4,3-c]pyridin-3-yl)-N-(pyridin-2-yl)benzamide]	–	5.00	< 4.46	> 100 µM	>9.91	100%
C=CC(=O)N1CCC[C@@H](n2nc(-c3ccc(C(=O)Nc4cc(C(C)(F)F)ccn4)cc3)c3cncc(C#N)c32)C1 [BCD-BTK-224, 4-{7-cyano-1-[(3R)-1-(prop-2-enoyl)piperidin-3-yl]-1H-pyrazolo[4,3-c]pyridin-3-yl}-N-[4-(1,1-difluoroethyl)pyridin-2-yl]benzamide]	–	4.96	< 4.30	73.1 µM	6.63	100%
C=CC(=O)N1CC[C@@H](Cn2nc(-c3ccc(C(=O)Nc4ccccn4)cc3)c3cncc(Cl)c32)C1 [BCD-BTK-284, (R)-4-(1-((1-acryloylpyrrolidin-3-yl)methyl)-7-chloro-1H-pyrazolo[4,3-c]pyridin-3-yl)-N-(pyridin-2-yl)benzamide]	–	4.55	3.94	> 100 µM	>3.59	100%
C=CC(=O)N1CCC[C@@H](n2nc(-c3ccc(C(=O)Nc4cccc(F)n4)cc3)c3c(N)ncc(Cl)c32)C1 [BCD-BTK -250, (R)-4-(1-(1-acryloylpiperidin-3-yl)-4-amino-7-chloro-1H-pyrazolo[4,3-c]pyridin-3-yl)-N-(6-fluoropyridin-2-yl)benzamide]	84.5%	–	–	–	–	–
C=CC(=O)Oc1cc(C#N)c2c(c1)c(-c1ccc(-n3ccc(=O)cc3)cc1)nn2[C@@H]1CCCN(C(=O)C=C)C1 [BCD-BTK-118, (R)-1-(1-acryloylpiperidin-3-yl)-7-cyano-3-(4-(4-oxopyridin-1(4H)-yl)phenyl)-1H-indazol-5-yl acrylate]	–	4.86	5.11	66.2 µM	4.83	95.4%
